In paper PMC9586283 (Proceedings of the National Academy of Sciences of the …, 2022):

Experiments:
[1] = tested on: wild-type Mlh1-Pms1; experiment: Mlh1-Pms1 endonuclease assay; format: biochemical, S. cerevisiae; conditions: 7.5 nM PCNA, 30 nM RFC-Δ1N, 35 nM Mlh1-Pms1, 1 mM MnSO4, 20 mM Tris (pH 7.5), 0.5 mM ATP, 100 ng supercoiled pRS425, 30 °C, 30 min, agarose gel
[2] = tested on: end-blocked, mispair-containing DNA; format: binding; conditions: 20 nM Msh2-Msh6, 40 nM Mlh1-Pms1, 250 μM ATP, 25 °C, 20 μL/min, 236-bp DNA, Biacore T100
[3] = tested on: 3′ AflIII CC substrate; experiment: Reconstituted Exo1- and Mlh1-Pms1-dependent MMR reaction in vitro; format: biochemical
[4] = tested on: supercoiled DNA plasmid; format: biochemical
[5] = tested on: Pms1; experiment: Interaction of mutant Mlh1 with Pms1 during protein purification; format: binding, S. cerevisiae

Row | Substance | Mlh1-Pms1 endonuclease activity ([1]; peptide-to-heterodimer molar ratio of 250:1) [%] | Mlh1-Pms1 endonuclease activity ([1]; peptide-to-heterodimer molar ratio of 1,000:1) [%] | recruitment by Msh2-Msh6, increase in response units [2] | MMR in vitro (in words) [3] | nicking activity relative to wild-type Mlh1-Pms1 ([4]; % of the nicking activity of the wild-type Mlh1-Pms1 protein, RFC-Δ1N and PCNA, ATP, 35 nM Mlh1-Pms1, 30 °C, 30 min, in triplicate) [%] | endonuclease activity (in words) ([4]; in vitro, with PCNA, RFC-Δ1N and ATP) | ability to interact with Pms1 [5]
1 | KAKRQENKLVRIDASQAKITSFLSS [wild-type peptide] | ~70 | ~50 | – | – | – | – | –
2 | Mlh1(RADA)-Pms1 | – | – | robust increase in the response units | defective for MMR | ~10 | defective for MMR and endonuclease activity in vitro | did not observe any defects in the ability of Mlh1(RADA) to interact with Pms1
3 | Mlh1-Pms1: wild-type S. cerevisiae Mlh1-Pms1 endonuclease heterodimer | – | – | robust increase in the response units | – | – | – | –
